Test results published in patent US10821115B2, “Compounds that inhibit Mcl-1 protein” (priority 2017, dated 2020).

What was measured:
OPM-2 Luc cells = experiment: OPM-2 xenograft efficacy model; type: in vivo; conditions: dosed orally to female athymic nude mice inoculated with OPM-2 Luc cells
Method: Example 1 was dosed orally to female athymic nude mice inoculated with OPM-2 Luc cells.

[1] = test system: human multiple myeloma cell line, OPM-2; experiment: Cell viability assay (OPM-2 10 FBS), CellTiter-Glo; type: cell-based; conditions: read-out: OPM-2 10% FBS IC50 IP; OPM-2 cells, 10% FBS, 16 h incubation
Outline: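 OPM-2 cells at 3000 cells/well in RPMI 1640 with 10% FBS were exposed to serially diluted compounds for 16 h at 37 °C, 5% CO2.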

[2] = biological target: recombinant human Mcl-1 (residues 171-327) / Bim interaction (Homo sapiens (Human), UniProt Q07820); experiment: biochemical; type: binding; conditions: 0.1 nM Mcl-1(171-327), 0.05 nM biotin-Bim (51-76); read-out: Mcl-1 HTRF IC50
Chain of recombinant human Mcl-1 (residues 171-327) / Bim interaction (Q07820 171-327): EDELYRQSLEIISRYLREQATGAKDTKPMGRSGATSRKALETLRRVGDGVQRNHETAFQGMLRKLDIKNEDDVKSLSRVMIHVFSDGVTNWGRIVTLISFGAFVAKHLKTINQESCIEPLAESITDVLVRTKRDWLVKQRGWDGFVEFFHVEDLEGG

In the case of `CO[C@]1(CN2CCN3CCCC[C@@H]3C2)/C=C/C[C@H](C)[C@@H](C)S(=O)(=O)NC(=O)c2ccc3c(c2)N(C[C@@H]2CC[C@H]21)C[C@@]1(CCCc2cc(Cl)ccc21)CO3` [Example 10, (1 S,3′R,6′R,7′R,8′E, 11′S,12′R)-6-CHLORO-7′-METHOXY-11′,12′-DIMETHYL-7′-((9AR)-OCTAHYDRO-2H-PYRIDO[1,2-A]PYRAZIN-2-YLMETHYL)-3,4-DIHYDRO-2H, 15′H-SPIRO [NAPHTHALENE-1,22′-[20]OXA[13]THIA[1,14]DIAZATETRACYCLO [14.7.2.0-3,6˜.0˜19,24˜]PENTACOSA[8,16,18,24]TETRAEN]-15′-ONE 13′,13′-DIOXIDE], the “in vivo efficacy in an OPM-2 xenograft efficacy model” value (OPM-2 Luc cells) is reported as “in vivo efficacy” and the IC50 [1] is reported as 75 nM.

Compound “(1 S,3′R,6′R,7′S,8′E, 11′S,12′R)-6-chloro-11′,12′-dimethyl-7′-(2-methylpropoxy)-7′-((4-(3-oxetanyl)-1-piperazinyl)methyl)-3,4-dihydro-2H,15′H-spiro[naphthalene-1,22′-[20]oxa[13]thia[1,14]diazatetracyclo[14.7.2.0-3,6˜.0˜19,24˜]pentacosa[8,16,18,24]tetraen]-15′-one 13′,13′-dioxide [Example 348]” has an IC50 [1] of 5360 nM and an IC50 [2] of 2.62 nM.

“(1S,3′R,6′R,7′R,8′E,11′S,12′R)-6-chloro-12′-(2-(dimethylamino)ethyl)-7′-methoxy-11′-methyl-7′-((9aR)-octahydro-2H-pyrido[1,2-a]pyrazin-2-ylmethyl)-3,4-dihydro-2H,15′H-spiro[naphthalene-1,22′-[20]oxa[13]thia[1,14]diazatetracyclo[14.7.2.0-3,6˜.0˜19,24˜]pentacosa[8,16,18,24]tetraen]-15′-one 13′,13′-dioxide [Example 367]” gave an IC50 [1] of 273 nM and an IC50 [2] of 0.201 nM.

“(1S,3′R,6′R,7′R,8′E, 11′S,12′R)-6-chloro-12′-(2-hydroxyethyl)-7′-methoxy-11′-methyl-7′-((9aR)-octahydro-2H-pyrido[1,2-a]pyrazin-2-ylmethyl)-3,4-dihydro-2H, 15′H-spiro[naphthalene-1,22′-[20]oxa[13]thia[1,14]diazatetracyclo[14.7.2.0-3,6˜.0˜19,24˜]pentacosa[8,16,18,24]tetraen]-15′-one 13′,13′-dioxide [Example 358]” was tested, and the IC50 [1] was 144 nM and the IC50 [2] was 0.066 nM.

“(1S,3′R,6′R,7′S,8′E,11′S,12′R)-6-chloro-7′-(2-methoxyethoxy)-11′,12′-dimethyl-7′-((9aR)-octahydro-2H-pyrido[1,2-a]pyrazin-2-ylmethyl)-3,4-dihydro-2H, 15′H-spiro[naphthalene-1,22′-[20]oxa[13]thia[1,14]diazatetracyclo[14.7.2.0-3,6˜.0˜19,24˜]pentacosa[8,16,18,24]tetraen]-15′-one 13′,13′-dioxide [Example 151]” showed an IC50 [1] of 462 nM and an IC50 [2] of 0.843 nM.

Compound “(1S,3′R,6′R,7′S,8′E,11′S,12′R)-6-chloro-7′-((9aS)-hexahydropyrazino[2,1-c][1,4]oxazin-8(1H)-ylmethyl)-7′-methoxy-11′-methyl-3,4-dihydro-2H,16′H-spiro[naphthalene-1,23′-[21]oxa[27]thia[1,15]diazapentacyclo[15.7.2.1-12,15˜.0˜3,6˜.0˜20,25˜]heptacos a[8,17,19,25]tetraen]-16′-one 27′,27′-dioxide [Example 364]” has an IC50 [1] greater than 33300 nM and an IC50 [2] of 192 nM.

With “(1S,3′R,6′R,7′S,8′E, 11′S,12′R)-6-chloro-12′-(2-chloroethyl)-7′-((9aS)-hexahydropyrazino[2,1-c][1,4]oxazin-8(1H)-ylmethyl)-7′-methoxy-11′-methyl-3,4-dihydro-2H,15′H-spiro[naphthalene-1,22′-[20]oxa[13]thia[1,14]diazatetracyclo[14.7.2.0-3,6˜.0˜19,24˜]pentacosa[8,16,18,24]tetraen]-15′-one 13′,13′-dioxide [Example 366]” the IC50 [1] was 133 nM and the IC50 [2] was 0.248 nM.
